Experimental data published in ChEMBL document CHEMBL3046265, “Synthesis, evaluation of antimicrobial activity, and molecular modeling of novel 2-((4-(2H-benzo[d] [1,2,3] triazol-2-yl)piperidin-1-yl)methyl)-5-substituted phenyl-1,3,4-oxadiazoles” (2013).

How the values were obtained:
Format in all cases: functional
Conditions in all cases: read-out: IZ
[1] = test system: Escherichia coli; test: Antibacterial activity against Escherichia coli at 900 ug/ml after overnight incubation
[2] = test system: Klebsiella pneumoniae; test: Antibacterial activity against Klebsiella pneumoniae at 900 ug/ml after overnight incubation
[3] = test system: Priestia megaterium; test: Antibacterial activity against Bacillus megaterium at 900 ug/ml after overnight incubation
[4] = test system: Candida albicans; test: Antifungal activity against Candida albicans at 900 ug/ml after 48 hr
[5] = test system: Fusarium oxysporum; test: Antifungal activity against Fusarium oxysporum at 1200 ug/ml after 48 hr
[6] = test system: Exserohilum rostratum; test: Antifungal activity against Setosphaeria rostrata at 900 ug/ml after 48 hr
[7] = test system: Enterococcus faecalis; test: Antibacterial activity against Enterococcus faecalis at 900 ug/ml after overnight incubation
[8] = test system: Streptococcus pyogenes; test: Antibacterial activity against Streptococcus pyogenes at 600 ug/ml after overnight incubation
[9] = test system: Staphylococcus aureus; test: Antibacterial activity against Staphylococcus aureus at 600 ug/ml after overnight incubation
[10] = test system: Exserohilum rostratum; test: Antifungal activity against Setosphaeria rostrata at 300 ug/ml after 48 hr
[11] = test system: Escherichia coli; test: Antibacterial activity against Escherichia coli at 600 ug/ml after overnight incubation
[12] = test system: Enterococcus faecalis; test: Antibacterial activity against Enterococcus faecalis at 600 ug/ml after overnight incubation
[13] = test system: Exserohilum rostratum; test: Antifungal activity against Setosphaeria rostrata at 600 ug/ml after 48 hr
[14] = test system: Colletotrichum falcatum; test: Antifungal activity against Glomerella tucumanensis at 600 ug/ml after 48 hr
[15] = test system: Bacillus pumilus; test: Antibacterial activity against Bacillus pumilus at 600 ug/ml after overnight incubation
[16] = test system: Bacillus pumilus; test: Antibacterial activity against Bacillus pumilus at 900 ug/ml after overnight incubation
[17] = test system: Bacillus subtilis; test: Antibacterial activity against Bacillus subtilis at 900 ug/ml after overnight incubation
[18] = test system: Priestia megaterium; test: Antibacterial activity against Bacillus megaterium at 600 ug/ml after overnight incubation
[19] = test system: Staphylococcus aureus; test: Antibacterial activity against Staphylococcus aureus at 900 ug/ml after overnight incubation
[20] = test system: Streptococcus pyogenes; test: Antibacterial activity against Streptococcus pyogenes at 900 ug/ml after overnight incubation
[21] = test system: Klebsiella aerogenes; test: Antibacterial activity against Enterobacter aerogenes at 600 ug/ml after overnight incubation
[22] = test system: Klebsiella aerogenes; test: Antibacterial activity against Enterobacter aerogenes at 900 ug/ml after overnight incubation
[23] = test system: Exserohilum rostratum; test: Antifungal activity against Setosphaeria rostrata at 1200 ug/ml after 48 hr
[24] = test system: Proteus vulgaris; test: Antibacterial activity against Proteus vulgaris at 900 ug/ml after overnight incubation
[25] = test system: Candida albicans; test: Antifungal activity against Candida albicans at 300 ug/ml after 48 hr
[26] = test system: Colletotrichum falcatum; test: Antifungal activity against Glomerella tucumanensis at 300 ug/ml after 48 hr
[27] = test system: Colletotrichum falcatum; test: Antifungal activity against Glomerella tucumanensis at 1200 ug/ml after 48 hr
[28] = test system: Klebsiella pneumoniae; test: Antibacterial activity against Klebsiella pneumoniae at 600 ug/ml after overnight incubation
[29] = test system: Fusarium oxysporum; test: Antifungal activity against Fusarium oxysporum at 900 ug/ml after 48 hr
[30] = test system: Candida albicans; test: Antifungal activity against Candida albicans at 1200 ug/ml after 48 hr
[31] = test system: Colletotrichum falcatum; test: Antifungal activity against Glomerella tucumanensis at 900 ug/ml after 48 hr
[32] = test system: Candida albicans; test: Antifungal activity against Candida albicans at 600 ug/ml after 48 hr
[33] = test system: Fusarium oxysporum; test: Antifungal activity against Fusarium oxysporum at 300 ug/ml after 48 hr
[34] = test system: Proteus vulgaris; test: Antibacterial activity against Proteus vulgaris at 600 ug/ml after overnight incubation
[35] = test system: Fusarium oxysporum; test: Antifungal activity against Fusarium oxysporum at 600 ug/ml after 48 hr
[36] = test system: Bacillus subtilis; test: Antibacterial activity against Bacillus subtilis at 600 ug/ml after overnight incubation

| SMILES | zone of inhibition at 900 µg/mL [1] [mm] | zone of inhibition at 900 µg/mL [2] [mm] | zone of inhibition at 900 µg/mL [3] [mm] | zone of inhibition at 900 µg/mL [4] [mm] | zone of inhibition at 1200 µg/mL [5] [mm] | zone of inhibition at 900 µg/mL [6] [mm] | zone of inhibition at 900 µg/mL [7] [mm] | zone of inhibition at 600 µg/mL [8] [mm] | zone of inhibition at 600 µg/mL [9] [mm] | zone of inhibition at 300 µg/mL [10] [mm] | zone of inhibition at 600 µg/mL [11] [mm] | zone of inhibition at 600 µg/mL [12] [mm] | zone of inhibition at 600 µg/mL [13] [mm] | zone of inhibition at 600 µg/mL [14] [mm] | zone of inhibition at 600 µg/mL [15] [mm] | zone of inhibition at 900 µg/mL [16] [mm] | zone of inhibition at 900 µg/mL [17] [mm] | zone of inhibition at 600 µg/mL [18] [mm] | zone of inhibition at 900 µg/mL [19] [mm] | zone of inhibition at 900 µg/mL [20] [mm] | other results |
| --- | --- | --- | --- | --- | --- | --- | --- | --- | --- | --- | --- | --- | --- | --- | --- | --- | --- | --- | --- | --- | --- |
| O=[N+]([O-])c1ccc(-c2nnc(CN3CCC(n4nc5ccccc5n4)CC3)o2)cc1Cl | 9.56 | 6.25 | 12.3 | 12.9 | 31.4 | 11 | 7.25 | 3.35 | 4.89 | 2.95 | 4.82 | 4.52 | 5.56 | 9.86 | 3.46 | 7.25 | 12 | 5.62 | 10.2 | 7.05 | zone of inhibition at 600 µg/mL [21]: 6.28 mm; zone of inhibition at 900 µg/mL [22]: 12.4 mm; zone of inhibition at 1200 µg/mL [23]: 23 mm; zone of inhibition at 900 µg/mL [24]: 9.56 mm; zone of inhibition at 300 µg/mL [25]: 2.87 mm; zone of inhibition at 300 µg/mL [26]: 4.57 mm; zone of inhibition at 1200 µg/mL [27]: 33.2 mm; zone of inhibition at 600 µg/mL [28]: 3.89 mm; zone of inhibition at 900 µg/mL [29]: 15.2 mm; zone of inhibition at 1200 µg/mL [30]: 23.1 mm; zone of inhibition at 900 µg/mL [31]: 17.8 mm; zone of inhibition at 600 µg/mL [32]: 6.25 mm; zone of inhibition at 300 µg/mL [33]: 4.45 mm; zone of inhibition at 600 µg/mL [34]: 4.85 mm; zone of inhibition at 600 µg/mL [35]: 8.8 mm; zone of inhibition at 600 µg/mL [36]: 5.89 mm |
| CC(C)(C)c1cc(-c2nnc(CN3CCC(n4nc5ccccc5n4)CC3)o2)cc(C(C)(C)C)c1 | 6.8 | 7.85 | 8.21 | 15 | 33.8 | 15.9 | 11.6 | 3.95 | 4.3 | 4.54 | 3.25 | 5.85 | 8.25 | 8.32 | 4.56 | 9.95 | 11.2 | 3.95 | 9.05 | 8.95 | zone of inhibition at 600 µg/mL [21]: 3.5 mm; zone of inhibition at 900 µg/mL [22]: 7.25 mm; zone of inhibition at 1200 µg/mL [23]: 29.8 mm; zone of inhibition at 900 µg/mL [24]: 9.45 mm; zone of inhibition at 300 µg/mL [25]: 3.97 mm; zone of inhibition at 300 µg/mL [26]: 3.98 mm; zone of inhibition at 1200 µg/mL [27]: 32 mm; zone of inhibition at 600 µg/mL [28]: 3.85 mm; zone of inhibition at 900 µg/mL [29]: 17.9 mm; zone of inhibition at 1200 µg/mL [30]: 29.9 mm; zone of inhibition at 900 µg/mL [31]: 15.8 mm; zone of inhibition at 600 µg/mL [32]: 7.08 mm; zone of inhibition at 300 µg/mL [33]: 4.5 mm; zone of inhibition at 600 µg/mL [34]: 4.95 mm; zone of inhibition at 600 µg/mL [35]: 9.25 mm; zone of inhibition at 600 µg/mL [36]: 5.05 mm |
